# Assay results reported in the NIST ThermoML archive (doi:10.1021/je0301489).
# Values joined by “and” are separate entries in the source; they are usually repeats but may differ in a detail not shown here. Equal entries are not always repeated. Numbers after ± are expanded uncertainties.
# Key:
# [1] = refractive index (Na D-line) (dimensionless); settings: 101.33 kPa, Liquid
# [2] = 101.33 kPa, Liquid
SMILES,refractive index ([1]; 298.15 K),refractive index ([1]; 303.15 K),refractive index ([1]; 308.15 K),mass density ([2]; 298.15 K) [kg/m3],speed of sound ([2]; 298.15 K),viscosity ([2]; 298.15 K),mass density ([2]; 303.15 K) [kg/m3],viscosity ([2]; 303.15 K) [mPa·s],mass density ([2]; 308.15 K) [kg/m3],viscosity ([2]; 308.15 K) [mPa·s]
CCOC(=O)c1ccccc1C(=O)OCC [diethyl phthalate],1.5001 ± 0.0009,1.4978 ± 0.0009,1.4958 ± 0.0009,1115.1 ± 2.1,1446 ± 5 m/s,7.926 ± 0.14 mPa·s,1110.2 ± 2.1,6.129 ± 0.11,1105.6 ± 2.1,4.893 ± 0.091
"C1COCCO1 [1,4-dioxane]",1.4201 ± 0.0007 and 1.4202 ± 0.0007,1.417 ± 0.0007,1.4144 ± 0.0007,1027.6 ± 1.1,1347 ± 3 m/s and 1348 ± 3 m/s,1.166 ± 0.015 mPa·s and 1.167 ± 0.015 mPa·s,1021.9 ± 1.2,1.069 ± 0.014,1016.2 ± 1.2,0.984 ± 0.013
CCOC(=O)CC(C)=O [ethyl 3-oxobutanoate],1.4166 ± 0.0007,1.4145 ± 0.0007,1.412 ± 0.0007,1020.9 ± 1.1,1331 ± 3 m/s,1.48 ± 0.019 mPa·s,1014.9 ± 1.2,1.339 ± 0.017,1010.2 ± 1.2,1.239 ± 0.016
CCOC(=O)C(=O)OCC [diethyl ethanedioate],1.4084 ± 0.0006,1.406 ± 0.0006,1.4034 ± 0.0006,1072.9 ± 1.1,1276 ± 3 m/s,1.759 ± 0.021 mPa·s,1066.2 ± 1.1,1.581 ± 0.019,1060.8 ± 1.2,1.437 ± 0.017
